According to US20190152992A1, “BENZODIOXANE DERIVATIVES AND THEIR PHARMACEUTICAL USE” (Orion Corporation, priority 2016, published 2019):
pIC50: −log10 of the molar value. Counter-ions that a name gives are not always drawn.

Columns and labels:
[1] = target: T1, human alpha2C receptors (Homo sapiens, UniProt P18825); assay: Determination of alpha2C antagonistic activity in vitro (FLIPR calcium assay); conditions: for Kb: Alpha 2C Adrenaline Kb, Kb calculated from IC50 with the Cheng-Prusoff equation, adrenaline as agonist, CHO cells, human alpha2C
T1 sequence (P18825 1-462): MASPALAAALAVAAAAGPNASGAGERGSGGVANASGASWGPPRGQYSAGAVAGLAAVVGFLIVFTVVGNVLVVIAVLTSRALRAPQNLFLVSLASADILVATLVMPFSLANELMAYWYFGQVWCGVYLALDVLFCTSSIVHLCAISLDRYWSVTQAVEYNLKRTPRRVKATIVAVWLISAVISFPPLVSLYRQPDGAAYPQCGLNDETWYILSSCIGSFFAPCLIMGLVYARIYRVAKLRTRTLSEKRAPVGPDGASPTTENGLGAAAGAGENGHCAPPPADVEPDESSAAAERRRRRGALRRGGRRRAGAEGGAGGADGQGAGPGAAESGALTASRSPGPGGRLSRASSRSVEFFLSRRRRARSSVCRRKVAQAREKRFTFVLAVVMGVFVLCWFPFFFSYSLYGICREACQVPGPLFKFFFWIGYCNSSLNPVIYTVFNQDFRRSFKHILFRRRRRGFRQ

[2] = target: T2, human alpha2A receptors (Homo sapiens, UniProt P08913); assay: cell-based
T2 sequence (P08913 1-465): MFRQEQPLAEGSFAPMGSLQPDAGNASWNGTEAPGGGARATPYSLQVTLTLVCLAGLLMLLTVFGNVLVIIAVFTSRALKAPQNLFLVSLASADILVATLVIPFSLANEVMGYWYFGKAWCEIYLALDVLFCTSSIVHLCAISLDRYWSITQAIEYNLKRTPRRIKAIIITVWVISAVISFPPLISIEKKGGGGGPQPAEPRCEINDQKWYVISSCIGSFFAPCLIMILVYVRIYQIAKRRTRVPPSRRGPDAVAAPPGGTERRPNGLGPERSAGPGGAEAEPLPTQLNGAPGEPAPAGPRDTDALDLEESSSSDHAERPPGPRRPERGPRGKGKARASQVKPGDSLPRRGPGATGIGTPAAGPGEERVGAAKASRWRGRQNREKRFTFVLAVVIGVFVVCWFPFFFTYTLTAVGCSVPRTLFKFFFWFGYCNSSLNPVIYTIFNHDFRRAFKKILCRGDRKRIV
Method: Experiment 1: Determination of alpha2A and alpha2C Antagonistic Activity In Vitro
The growth medium was removed and the cells were incubated with the test compounds and the FLIPR Calcium 6 Assay reagent (Molecular Devices, CA, USA) for 2 h at 37° C. in dark. The test compounds (concentrations in cells 100 pM-10 μM) were dissolved in Probenecid-Ringer consisting of 150 mM NaCl, 3 mM KCl, 1.2 mM MgCl2, 1 mM CaCl2, 5 mM glucose, 20 mM HEPES and 2.5 mM probenecid (pH 7.4 adjusted with 1.0 M NaOH). […] All experiments were performed at 37° C. For agonism measurements the test compounds dissolved in Probenecid-Ringer were applied by FLIPR Tetra at 15 s time point. In order to determine antagonism, the cells were stimulated either with 100 nM adrenaline or noradrenaline and the test compounds were added to the cells 2 h before the experiment with the FLIPR Calcium 6 Assay reagent. […] Typically, there were four replicates at each concentration and six different dose levels. […] The minimum fluorescence value subtracted from the maximum value for each well was used in the calculations. ScreenWorks version 4.0 software was used for analyzing the results. Fitting of the antagonist dose-response results was performed with the free Hill equation and the IC50 values were fitted with IDBS XE software using model 200: y=(A+(B/(1+((x/C)̂D)))), where A is the curve maximum, B the curve minimum and C equals the EC50 value. D is slope factor (Hill). Kb was calculated with the Cheng-Prusoff equation Kb=A/((B/C)+1), where A is the IC50 of antagonist, B the concentration of agonist and C the EC50 of the agonist.

Structure (SMILES) | pIC50 [1] | Kb [1] [nM] | pIC50 [2] | Kb [2] [nM]
Cc1nc2ccc(F)cc2n1[C@H]1CCCN(C[C@H]2COc3ccccc3O2)C1 [example 83, 1-((S)-1-(((S)-2,3-Dihydrobenzo[b][1,4]dioxin-2-yl)methyl)piperidin-3-yl)-6-fluoro-2-methyl-1H-benzo[d]imidazole] | > 10.00 | < 0.01 | < 5.00 | > 449
CCc1nc2ccc(F)cc2n1[C@H]1CCCN(C[C@H]2COc3ccccc3O2)C1 [example 84, 1-((S)-1-(((S)-2,3-Dihydrobenzo[b][1,4]dioxin-2-yl)methyl)piperidin-3-yl)-2-ethyl-6-fluoro-1H-benzo[d]imidazole] | > 10.00 | < 0.01 | 5.36 | 195
CC(C)c1nc2ccc(F)cc2n1[C@H]1CCCN(C[C@H]2COc3ccccc3O2)C1 [example 85, 1-((S)-1-(((S)-2,3-Dihydrobenzo[b][1,4]dioxin-2-yl)methyl)piperidin-3-yl)-6-fluoro-2-isopropyl-1H-benzo[d]imidazole] | 5.90 | 127 | < 5.00 | > 449
O=c1[nH]c2ccc(F)cc2n1[C@H]1CCCN(C[C@H]2COc3ccccc3O2)C1 [example 86, 1-((S)-1-(((S)-2,3-Dihydrobenzo[b][1,4]dioxin-2-yl)methyl)piperidin-3-yl)-6-fluoro-1H-benzo[d]imidazol-2(3H)-one] | > 10.00 | < 0.01 | < 5.00 | > 449
Fc1ccc2c(c1)ncn2[C@H]1CCCN(C[C@H]2COc3ccccc3O2)C1 [example 87, 1-((S)-1-(((S)-2,3-Dihydrobenzo[b][1,4]dioxin-2-yl)methyl)piperidin-3-yl)-5-fluoro-1H-benzo[d]imidazole] | > 10.00 | < 0.01 | < 5.00 | > 449
O=c1[nH]c2cc(F)ccc2n1[C@H]1CCCN(C[C@H]2COc3ccccc3O2)C1 [example 88, 1-((S)-1-(((S)-2,3-Dihydrobenzo[b][1,4]dioxin-2-yl)methyl)piperidin-3-yl)-5-fluoro-1H-benzo[d]imidazol-2(3H)-one] | > 10.00 | < 0.01 | < 5.00 | > 449
Clc1ccc2ncn([C@H]3CCCN(C[C@H]4COc5ccccc5O4)C3)c2c1 [example 89, 6-Chloro-1-((S)-1-(((S)-2,3-dihydrobenzo[b][1,4]dioxin-2-yl)methyl)piperidin-3-yl)-1H-benzo[d]imidazole] | > 10.00 | < 0.01 | 5.02 | 425
Cc1nc2ccc(Cl)cc2n1[C@H]1CCCN(C[C@H]2COc3ccccc3O2)C1 [example 90, 6-Chloro-1-((S)-1-(((S)-2,3-dihydrobenzo[b][1,4]dioxin-2-yl)methyl)piperidin-3-yl)-2-methyl-1H-benzo[d]imidazole] | > 10.00 | < 0.01 | 4.96 | 498
Clc1ccc2c(c1)ncn2[C@H]1CCCN(C[C@H]2COc3ccccc3O2)C1 [example 91, 5-Chloro-1-((S)-1-(((S)-2,3-dihydrobenzo[b][1,4]dioxin-2-yl)methyl)piperidin-3-yl)-1H-benzo[d]imidazole] | > 10.00 | < 0.01 | < 5.00 | > 449
O=C1C2CCCC2C(=O)N1[C@H]1CCCN(C[C@H]2COc3ccccc3O2)C1 (stereo partly drawn) [example 92, 2-((S)-1-(((S)-2,3-Dihydrobenzo[b][1,4]dioxin-2-yl)methyl)piperidin-3-yl)tetrahydrocyclopenta[c]pyrrole-1,3(2H,3aH)-dione hydrochloride] | 9.82 | 0.02 | < 5.00 | > 449
O=C1[C@H]2CCCC[C@H]2C(=O)N1[C@H]1CCCN(C[C@H]2COc3ccccc3O2)C1 [example 93, (3aR,7aS)-2-((S)-1-(((S)-2,3-Dihydrobenzo[b][1,4]dioxin-2-yl)methyl)piperidin-3-yl)hexahydro-1H-isoindole-1,3(2H)-dione hydrochloride] | 10.04 | 0.009 | < 5.00 | > 449
O=C1C2=C(CCCC2)C(=O)N1[C@H]1CCCN(C[C@H]2COc3ccccc3O2)C1 [example 94, 2-((S)-1-(((S)-2,3-Dihydrobenzo[b][1,4]dioxin-2-yl)methyl)-piperidin-3-yl)-4,5,6,7-tetrahydro-1H-isoindole-1,3(2H)-dione hydrochloride] | > 10.00 | < 0.01 | < 5.00 | > 449
O=C1C2CC2C(=O)N1[C@H]1CCCN(C[C@H]2COc3ccccc3O2)C1 (stereo partly drawn) [example 95, 3-((S)-1-(((S)-2,3-Dihydrobenzo[b][1,4]dioxin-2-yl)methyl)piperidin-3-yl)-3-azabicyclo[3.1.0]hexane-2,4-dione] | 9.36 | 0.044 | 5.03 | 424
CCN1C(=O)CC(=O)N([C@H]2CCCN(C[C@H]3COc4ccccc4O3)C2)C1=O [example 96, 1-((S)-1-(((S)-2,3-Dihydrobenzo[b][1,4]dioxin-2-yl)methyl)-piperidin-3-yl)-3-ethylpyrimidine-2,4,6(1H,3H,5H)-trione] | 7.82 | 1.52 | < 5.00 | > 449
CC1CCN([C@H]2CCCN(C[C@H]3COc4ccccc4O3)C2)C1=O (stereo partly drawn) [example 97, 1-((S)-1-(((S)-2,3-Dihydrobenzo[b][1,4]dioxin-2-yl)methyl)-piperidin-3-yl)-3-methylpyrrolidin-2-one] | 9.00 | 0.1 | < 5.00 | > 449
CC1(C)CCN([C@H]2CCCN(C[C@H]3COc4ccccc4O3)C2)C1=O [example 100, 1-((S)-1-(((S)-2,3-Dihydrobenzo[b][1,4]dioxin-2-yl)methyl)piperidin-3-yl)-3,3-dimethylpyrrolidin-2-one] | 8.70 | 0.203 | < 5.00 | > 449
CN1CCN([C@H]2CCCN(C[C@H]3COc4ccccc4O3)C2)C1=O [example 101, 1-((S)-1-(((S)-2,3-Dihydrobenzo[b][1,4]dioxin-2-yl)methyl)piperidin-3-yl)-3-methylimidazolidin-2-one] | 9.11 | 0.08 | < 5.00 | > 449
CN1CC(=O)N([C@H]2CCCN(C[C@H]3COc4ccccc4O3)C2)C1=O [example 103, 3-((S)-1-(((S)-2,3-Dihydrobenzo[b][1,4]dioxin-2-yl)methyl)piperidin-3-yl)-1-methylimidazolidine-2,4-dione] | 8.50 | 0.32 | < 5.00 | > 449
CC(C)N1CC(=O)N([C@H]2CCCN(C[C@H]3COc4ccccc4O3)C2)C1=O [example 104, 3-((S)-1-(((S)-2,3-Dihydrobenzo[b][1,4]dioxin-2-yl)methyl)piperidin-3-yl)-1-isopropylimidazolidine-2,4-dione] | 8.00 | 1.01 | < 5.00 | > 449
CCN1CC(=O)N([C@H]2CCCN(C[C@H]3COc4ccccc4O3)C2)C1=O [example 105, 3-((S)-1-(((S)-2,3-Dihydrobenzo[b][1,4]dioxin-2-yl)methyl)-piperidin-3-yl)-1-ethylimidazolidine-2,4-dione] | 8.49 | 0.33 | < 5.00 | > 449
O=C1CN(C2CCCC2)C(=O)N1[C@H]1CCCN(C[C@H]2COc3ccccc3O2)C1 [example 106, 1-Cyclopentyl-3-((S)-1-(((S)-2,3-dihydrobenzo[b][1,4]dioxin-2-yl)methyl)piperidin-3-yl)imidazolidine-2,4-dione] | 10.00 | 0.01 | < 5.00 | > 449
CC(C)CN1CC(=O)N([C@H]2CCCN(C[C@H]3COc4ccccc4O3)C2)C1=O [example 107, 3-((S)-1-(((S)-2,3-Dihydrobenzo[b][1,4]dioxin-2-yl)methyl)piperidin-3-yl)-1-isobutylimidazolidine-2,4-dione] | 9.55 | 0.029 | < 5.00 | > 449
O=C1CN(CC2CC2)C(=O)N1[C@H]1CCCN(C[C@H]2COc3ccccc3O2)C1 [example 108, 1-(Cyclopropylmethyl)-3-((S)-1-(((S)-2,3-dihydrobenzo[b][1,4]dioxin-2-yl)methyl)piperidin-3-yl)imidazolidine-2,4-dione] | 8.90 | 0.13 | < 5.00 | > 449
